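How tested: cells in 96-well plates exposed to compound for 48 hours at five concentrations. Definition used: TGI = concentration required for complete inhibition of growth.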
Legend:
Assay in all cases: growth of human tumour cells (NCI), 48 h
[1] = system: A549 NSCLC
[2] = system: BT-549 breast
[3] = system: CCRF-CEM leukemia
[4] = system: COLO 205 colon
[5] = system: EKVX NSCLC
[6] = system: HOP-62 NSCLC
[7] = system: IGROV1 ovarian
[8] = system: MDA-MB-231 breast
[9] = system: SF-295 CNS
[10] = system: SK-MEL-5 melanoma
[11] = system: SR leukemia
[12] = system: UACC-62 melanoma

| SMILES | TGI [1] [µM] | TGI [2] [µM] | TGI [3] [µM] | TGI [4] [µM] | TGI [5] [µM] | TGI [6] [µM] | TGI [7] [µM] | TGI [8] [µM] | TGI [9] [µM] | TGI [10] [µM] | TGI [11] [µM] | TGI [12] [µM] |
| --- | --- | --- | --- | --- | --- | --- | --- | --- | --- | --- | --- | --- |
| CC[C@@]1(O)C(=O)OCc2c1cc1n(c2=O)Cc2c-1nc1ccccc1c2/C=N\NC(=O)C1CCCN1 (some centres not stated) | > 100 | > 100 | > 100 | > 100 | > 100 | 2.16 | > 96.6 | > 100 | 18.6 | 2.25 | 1.73 | 0.653 |
| CN(C(=O)Cc1ccccc1)n1cnn(CC(=O)OC(C)(C)C)c1=S | > 10 | > 10 | > 10 | > 10 | > 10 | > 10 | > 10 | > 10 | > 10 | > 10 | > 10 | > 10 |
| Cc1ccc2c(c1)C(=O)c1nc(C)ccc1C2=O | > 100 | > 100 | > 100 | 42.7 | > 100 | > 100 | 66.5 | 62.1 | > 100 | 19.7 | > 100 | 67.3 |
| Cc1ccc(NC=O)c(-c2c(N)[nH]c(=S)[nH]c2=O)c1 | > 100 | > 100 | > 100 | > 100 | > 100 | > 100 | > 100 | > 100 | > 100 | > 100 | > 100 | > 100 |
| O=C1c2ccccc2C(=O)c2cc(N=Nc3c(O)ccc4ccccc34)ccc21 | > 100 | > 100 | > 100 | > 100 | > 100 | > 100 | > 100 | > 100 | > 100 | > 100 | > 100 | > 100 |
| C#C/C=C\CCCC/C=C\C#CC#CCCCC#CC#C[C@H](COS(=O)(=O)O)OS(=O)(=O)O | > 100 | > 100 | > 100 | > 100 | > 100 | > 100 | > 100 | > 100 | > 100 | > 100 | > 100 | > 100 |

— PubChem BioAssay (NCI)
